These results are taken from patent publication US20230365563A1, “QUINAZOLINE COMPOUND AND APPLICATION THEREOF” (SHANGHAI PHARMACEUTICALS HOLDING CO., LTD., priority 2020, published 2023).

One assay has as its target T1, KRAS_WT and SOS1 (Homo sapiens, UniProt P01116).
T1 construct: purchased
Briefly: Inhibition of KRAS_WT/SOS1 binding (Cisbio binding kit, 665/615 ratio), Effect Embodiment C. Particulars: read-out: GTP-KRAS-WT:SOS1 IC50. An outline of the steps:
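Compounds tested as 3-fold, 11-point dilutions in duplicate at 1% DMSO final against the KRAS_WT/SOS1 binding system. IC50 derived by nonlinear regression fit.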

Another assay concerns the target T2, KRAS-G12D and SOS1 (Homo sapiens, UniProt P01116, G12D).
T2 construct: purchased
The experiment in a line: Inhibition of KRAS-G12D/SOS1 binding (Cisbio binding kit, 665/615 ratio), Effect Embodiment A. Particulars: read-out: GTP-KRAS-G12D:SOS1 IC50. Summed up:
(§1)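 Duplicate wells received an eleven-point, threefold compound titration whose top point was the stock solution; final DMSO 1%.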

A further assay concerns the target T3, KRAS_G12D and cRAF (Homo sapiens, UniProt P01116, G12D).
T3 construct: purchased
The experiment in a line: Inhibition of KRAS_G12D/cRAF binding (Cisbio binding kit, 665/615 ratio), Effect Embodiment B. Particulars: read-out: GTP-KRAS-G12D:CRAF IC50. An outline of the steps:
as §1

Molecules are shown by their SMILES. Where a name gives a salt, the structure may show the parent alone.

T3 sequence (P01116 1-188 isoform P01116-2 G12D): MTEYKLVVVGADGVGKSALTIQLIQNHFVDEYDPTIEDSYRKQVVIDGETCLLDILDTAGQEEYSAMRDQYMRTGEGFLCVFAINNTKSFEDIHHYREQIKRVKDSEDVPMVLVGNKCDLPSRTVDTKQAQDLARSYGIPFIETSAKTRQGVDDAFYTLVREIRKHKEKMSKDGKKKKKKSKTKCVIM
T2 sequence (P01116 1-188 isoform P01116-2 G12D): as above
T1 sequence (P01116 1-188 isoform P01116-2): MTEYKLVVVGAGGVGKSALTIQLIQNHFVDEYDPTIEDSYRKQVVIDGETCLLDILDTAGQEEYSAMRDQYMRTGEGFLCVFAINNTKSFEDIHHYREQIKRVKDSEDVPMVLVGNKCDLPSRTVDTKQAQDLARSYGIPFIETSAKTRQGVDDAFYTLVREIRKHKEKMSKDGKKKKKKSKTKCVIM

Consider `CCc1c(F)ccc2cc(O)cc(-c3c(F)cc4c(N5CC6CCC(C5)N6)nc(OCCCN5C6CCC5COC6)nc4c3F)c12` (single isomer, unassigned) [Compound 215a, 4-((7S or 7R)-2-(3-(3-oxa-8-azabicyclo[3.2.1]octan-8-yl)propoxy)-4-((1R,5S)-3,8-diazabicyclo[3.2.1]octan-3-yl)-6,8-difluoroquinazolin-7-yl)-5-ethyl-6-fluoronaphthalen-2-ol diformate], for which the IC50 on KRAS_WT and SOS1 was 52.4 nM; on KRAS-G12D and SOS1, 11.9 nM; on KRAS_G12D and cRAF, 5.44 nM.

As for `Oc1cc(-c2c(Cl)cc3c(N4CC5CCC(C4)N5)nc(OCCCN4C5CCC4COC5)nc3c2F)c2ccccc2c1` (single isomer, unassigned) [Compound 106, (4S or R)-4-(2-(3-(3-oxa-8-azabicyclo[3.2.1]octan-8-yl)propoxy)-4-((1R,5S)-3,8-diazabicyclo[3.2.1]octan-3-yl)-6-chloro-8-fluoroquinazolin-7-yl)naphthalen-2-ol dihydrochloride], the IC50 came out at 1770 nM at KRAS_WT and SOS1; 39.1 nM at KRAS-G12D and SOS1; 158 nM at KRAS_G12D and cRAF.

For the compound `C[C@@H](COc1nc(N2CC3CCC(C2)N3)c2cc(Cl)c(-c3cc(O)cc4ccc(F)c(F)c34)c(F)c2n1)CN1C2CCC1COC2` (single isomer, unassigned) [Compound 228, ((4S or 4R) 4-(2-((2R)-3-(3-oxa-8-azabicyclo[3.2.1]octan-8-yl)-2-methylpropoxy)-4-((1R,5S)-3,8-diazabicyclo[3.2.1]octan-3-yl)-6-chloro-8-fluoroquinazolin-7-yl)-5,6-difluoronaphthalen-2-ol formate], the concentration for half-maximal inhibition (IC50) at KRAS_WT and SOS1 worked out at 92.3 nM; on KRAS-G12D and SOS1, 14.2 nM; at KRAS_G12D and cRAF it was 18.3 nM.

As for `Oc1cc(-c2c(Cl)cc3c(N4CC5CCC(C4)N5)nc(OCC(F)CN4C5CCC4COC5)nc3c2F)c2ccccc2c1` (single isomer, unassigned) [Compound 179b, ((4R or 4S)-4-(2-((2S or 2R)-3-(3-oxa-8-azabicyclo[3.2.1]octan-8-yl)-2-fluoropropoxy)-4-((1R,5S)-3,8-diazabicyclo[3.2.1]octan-3-yl)-6-chloro-8-fluoroquinazolin-7-yl)naphthalen-2-ol diformate], the IC50 on KRAS_WT and SOS1 was 5400 nM; on KRAS-G12D and SOS1, 60 nM; at KRAS_G12D and cRAF, 134 nM.

Turning to `CN1CCC[C@H]1COc1nc(N2CC3CCC(C2)N3)c2cc(Cl)c(-c3cc(O)c(F)c4ccccc34)c(F)c2n1` (single isomer, unassigned) [Compound 89a, (S or R)-4-(4-((1R,5S)-3,8-diazabicyclo[3.2.1]octan-3-yl)-6-chloro-8-fluoro-2-(S)-1-methylpyrrolidin-2-yl)methoxy)quinazolin-7-yl)-1-fluoronaphthalen-2-ol hydrochloride], the IC50 at KRAS_WT and SOS1 amounted to 2190 nM; at KRAS-G12D and SOS1 it was 47.7 nM; at KRAS_G12D and cRAF, 110 nM.

As to `CN(C)CCOc1nc(N2CC3CCC(C2)N3)c2cc(Cl)c(-c3cc(O)cc4ccccc34)c(F)c2n1` (single isomer, unassigned) [Compound 48a, 4-((S or R)-4-((1R,5S)-3,8-diazabicyclo[3.2.1]octan-3-yl)-6-chloro-2-(2-(dimethylamino)ethoxy)-8-fluoroquinazolin-7-yl)naphthalen-2-ol], the IC50 was determined as 6020 nM on KRAS_WT and SOS1; 23.8 nM on KRAS-G12D and SOS1; 130 nM at KRAS_G12D and cRAF.

On to `Oc1cc(-c2c(Cl)cc3c(N4CC5CCC(C4)N5)nc(OCCN4CCCC(F)C4)nc3c2F)c2ccccc2c1` (single isomer, unassigned) [Compound 267a, 4-((R or S)-4-((1R,5S)-3,8-diazacyclo[3.2.1]octan-3-yl)-6-chloro-8-fluoro-2-(2-((S or R)-3-fluoropiperidin-1-yl)ethoxy)quinazolin-7-yl)naphthalen-2-ol formate], for which the IC50 was 6340 nM on KRAS_WT and SOS1; 76.7 nM on KRAS-G12D and SOS1; 259 nM on KRAS_G12D and cRAF.

For `C[C@@H]1CN(CCCOc2nc(N3CC4CCC(C3)N4)c3cc(Cl)c(-c4cc(O)cc5ccccc45)c(F)c3n2)CCO1` (single isomer, unassigned) [Compound 241, 4-((S or R)-4-((1R,5S)-3,8-diazacyclo[3.2.1]octan-3-yl)-6-chloro-8-fluoro-2-(3-((R)-2-methylmorpholinyl)propoxy)quinazolin-7-yl)naphthalen-2-ol formate], the IC50 on KRAS_WT and SOS1 amounted to 3600 nM; at KRAS-G12D and SOS1, 49.7 nM; at KRAS_G12D and cRAF, 203 nM.

With `C[C@@H](COc1nc(N2CC3CCC(C2)N3)c2cc(Cl)c(-c3cc(O)cc4ccccc34)c(F)c2n1)CN1CCOC2(CC2)C1` (single isomer, unassigned) [Compound 243, 4-((S or R)-4-((1R,5S)-3,8-diazabicyclo[3.2.1]octan-3-yl)-6-chloro-8-fluoro-2-((R)-2-methyl-3-(4-oxa-7-azaspiro[2.5]octan-7-yl)propoxy)quinazolin-7-yl)naphthalen-2-ol formate], the IC50 turned out to be 1250 nM on KRAS_WT and SOS1; 19.2 nM on KRAS-G12D and SOS1; 37.5 nM at KRAS_G12D and cRAF.

As for `CN1CCC[C@H]1COc1nc(N2CC3CCC(C2)N3)c2cc(Cl)c(-c3cc(O)cc4ccccc34)c(F)c2n1` (single isomer, unassigned) [Compound 170, (R or S)-4-(4-((1R,5S)-3,8-diazabicyclo[3.2.1]octan-3-yl)-6-chloro-8-fluoro-2-((S)-1-methylpyrrolidin-2-yl)methoxy)quinazolin-7-yl)naphthalen-2-ol dihydrochloride], the half-inhibitory concentration (IC50) on KRAS_WT and SOS1 turned out to be 270 nM; at KRAS-G12D and SOS1 it was 12.8 nM; at KRAS_G12D and cRAF it was 24.4 nM.

Consider `CN1CCCC1CCOc1nc(N2CC3CCC(C2)N3)c2cc(Cl)c(-c3cc(O)cc4ccccc34)c(F)c2n1` (single isomer, unassigned) [Compound 96a, 4-((S or R)-4-((1R,5S)-3,8-diazabicyclo[3.2.1]octan-3-yl)-6-chloro-8-fluoro-2-(2-((S or R)-1-methylpyrrolidin-2-yl)ethoxy)quinazolin-7-yl)naphthalen-2-ol], for which the IC50 at KRAS_WT and SOS1 was 1540 nM; on KRAS-G12D and SOS1, 22 nM; at KRAS_G12D and cRAF it was 88.5 nM.

As for `CN1CCN(CCCOc2nc(N3CC4CCC(C3)N4)c3cc(Cl)c(-c4cc(O)cc5ccccc45)c(F)c3n2)CC1` (single isomer, unassigned) [Compound 99, 4-((S or R)-4-((1R,5S)-3,8-diazabicyclo[3.2.1]octan-3-yl)-6-chloro-8-fluoro-2-(3-(4-methylpiperazin-1-yl)propoxy)quinazolin-7-yl)naphthalen-2-ol dihydrochloride], the 50% inhibitory concentration (IC50) on KRAS_WT and SOS1 is 2600 nM; at KRAS-G12D and SOS1, 52.2 nM; at KRAS_G12D and cRAF it was 168 nM.

Take `C#Cc1c(F)ccc2cc(O)cc(-c3c(Cl)cc4c(N5CC6CCC(C5)N6)nc(OCCCN5C6CCC5COC6)nc4c3F)c12` (single isomer, unassigned) [Compound 255b, (4R or 4S)-4-(2-(3-(3-oxa-8-azabicyclo[3.2.1]octan-8-yl)propoxy)-4-(1R,5S)-3,8-diazabicyclo[3.2.1]octan-3-yl)-6-chloro-8-fluoroquinazolin-7-yl)-5-ethynyl-6-fluoronaphthalen-2-ol diformate]: the IC50 at KRAS_WT and SOS1 came out at 75.6 nM; on KRAS-G12D and SOS1 it was 4.32 nM; at KRAS_G12D and cRAF, 13.2 nM.

Consider `CO[C@@H]1C[C@@H](COc2nc(N3CC4CCC(C3)N4)c3cc(Cl)c(-c4cc(O)cc5ccccc45)c(F)c3n2)N(C)C1` (single isomer, unassigned) [Compound 166, (R or S)-4-(4-((1R,5S)-3,8-diazabicyclo[3.2.1]octan-3-yl)-6-chloro-8-fluoro-2-((2S,4R)-4-methoxy-1-methylpyrrolidin-2-yl)methoxy)quinazolin-7-yl)naphthalenol dihydrochloride], for which the IC50 at KRAS_WT and SOS1 turned out to be 553 nM; at KRAS-G12D and SOS1, 25 nM; at KRAS_G12D and cRAF, 31.9 nM.

For `Oc1cc(-c2c(Cl)cc3c(N4CC5CCC(C4)N5)nc(OCCCN4CCCCC4)nc3c2F)c2ccccc2c1` (single isomer, unassigned) [Compound 66a, 4-((S or R)-4-((1R,5S)-3,8-diazabicyclo[3.2.1]octan-3-yl)-6-chloro-8-fluoro-2-(3-(piperidin-1-yl)propoxy)quinazolin-7-yl)naphthalen-2-ol], the IC50 was 1020 nM at KRAS_WT and SOS1; 38.3 nM on KRAS-G12D and SOS1; 139 nM on KRAS_G12D and cRAF.

Turning to `CN(C)C1CN(c2nc(N3CC4(CCNC4)C3)c3cc(Cl)c(-c4cc(O)cc5ccccc45)c(F)c3n2)C1` (single isomer, unassigned) [Compound 8a, (R or S)-4-(6-chloro-2-(3-(dimethylamino)azetidin-1-yl)-8-fluoro-4-(2,6-diazaspiro[3.4]octan-2-yl)quinazolin-7-yl)naphthalen-2-ol], the IC50 is 5340 nM on KRAS_WT and SOS1; 461 nM at KRAS-G12D and SOS1; 1170 nM at KRAS_G12D and cRAF.

Turning to `CCc1cccc2cccc(-c3c(F)cc4c(N5CC6CCC(C5)N6)nc(OC[C@@]56CCCN5C[C@H](F)C6)nc4c3F)c12` (single isomer, unassigned) [Compound 281a, (S or R)-4-((1R,5S)-3,8-diazacyclo[3.2.1]octan-3-yl)-7-(8-ethylnaphthalen-1-yl)-6,8-difluoro-2-((2R,7aS)-2-fluorotetrahydro-1H-pyrrolin-7a(5H)-yl)methoxy)quinazoline dihydrochloride], the IC50 at KRAS_WT and SOS1 stood at 564 nM; at KRAS-G12D and SOS1, 17.8 nM; on KRAS_G12D and cRAF, 20.3 nM.
